# pIC50: −log10 of the molar value. Read-outs that look alike come from different tables or passages of the source.
# What was measured:
# PDGF-Ra = molecular target: T1, PDGF-Ra (Homo sapiens, UniProt P16234); experiment: Inhibitory activity against PDGF-Ra phosphorylation by PDGF-AA stimulation using G292; assay type: cell-based; settings: for pIC50: > means inhibition at indicated concentration not more than 50%, < and << not less than 50%, read-out: PDGF (E) IC50; for inhibition at 0.1 µM: G292, figure within parentheses in >100( ), at 100 nM, read-out: PDGF (E) inhibition (%) at 100 nM
# T1 construct: host or cells: G-292 human osteosarcoma cells
# T1 sequence (P16234 24-1089): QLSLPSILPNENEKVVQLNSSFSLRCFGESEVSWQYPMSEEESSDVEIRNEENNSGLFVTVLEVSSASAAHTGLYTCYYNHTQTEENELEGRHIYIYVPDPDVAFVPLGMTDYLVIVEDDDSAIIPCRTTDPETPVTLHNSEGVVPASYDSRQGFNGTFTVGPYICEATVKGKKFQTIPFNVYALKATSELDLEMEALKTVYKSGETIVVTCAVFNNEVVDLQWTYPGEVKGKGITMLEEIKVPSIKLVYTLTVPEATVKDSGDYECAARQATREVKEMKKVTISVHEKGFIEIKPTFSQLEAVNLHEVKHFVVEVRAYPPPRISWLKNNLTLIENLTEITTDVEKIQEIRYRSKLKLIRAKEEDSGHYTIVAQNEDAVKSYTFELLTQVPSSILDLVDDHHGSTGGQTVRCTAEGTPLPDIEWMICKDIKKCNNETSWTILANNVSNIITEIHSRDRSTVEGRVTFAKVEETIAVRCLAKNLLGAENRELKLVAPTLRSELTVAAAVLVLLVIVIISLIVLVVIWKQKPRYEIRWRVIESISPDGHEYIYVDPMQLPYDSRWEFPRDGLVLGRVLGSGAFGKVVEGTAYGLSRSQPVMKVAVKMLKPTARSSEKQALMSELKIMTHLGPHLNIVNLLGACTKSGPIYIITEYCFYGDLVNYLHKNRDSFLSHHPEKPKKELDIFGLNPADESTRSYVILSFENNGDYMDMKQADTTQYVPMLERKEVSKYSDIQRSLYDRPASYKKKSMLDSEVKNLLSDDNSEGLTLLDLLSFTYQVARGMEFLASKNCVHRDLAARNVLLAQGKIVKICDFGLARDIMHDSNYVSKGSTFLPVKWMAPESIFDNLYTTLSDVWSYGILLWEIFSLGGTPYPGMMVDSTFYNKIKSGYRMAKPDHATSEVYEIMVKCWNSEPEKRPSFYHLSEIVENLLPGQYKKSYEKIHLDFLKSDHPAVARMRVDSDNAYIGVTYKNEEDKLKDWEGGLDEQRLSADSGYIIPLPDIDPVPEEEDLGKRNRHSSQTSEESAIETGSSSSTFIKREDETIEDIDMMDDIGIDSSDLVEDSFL
# How it was run: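 G-292 human osteosarcoma cells in 0.1% FBS medium overnight, given compound for 1 hr at 37° C, then PDGF-AA 50 ng/ml for 5 min. Lysates captured on anti-phosphotyrosine (PY-20) plates and probed with anti-PDGF-Ra plus HRP secondary; absorbance at 450 nm.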
# c-kit = molecular target: T2, c-kit (Homo sapiens, UniProt P10721); experiment: Inhibitory activity against c-kit autophosphorylation (MO7e cells, h-SCF); assay type: cell-based; settings: for pIC50: MO7e cells, read-out: c-kit IC50; for inhibition at 1 µM: Mo7e, at 1000 nM
# T2 construct: MO7e (human megakaryocytic leukemia cell line) which had been arrested for 20 hr; endogenous in cells; host or cells: MO7e human megakaryocytic leukemia cell line
# T2 sequence (P10721 26-976): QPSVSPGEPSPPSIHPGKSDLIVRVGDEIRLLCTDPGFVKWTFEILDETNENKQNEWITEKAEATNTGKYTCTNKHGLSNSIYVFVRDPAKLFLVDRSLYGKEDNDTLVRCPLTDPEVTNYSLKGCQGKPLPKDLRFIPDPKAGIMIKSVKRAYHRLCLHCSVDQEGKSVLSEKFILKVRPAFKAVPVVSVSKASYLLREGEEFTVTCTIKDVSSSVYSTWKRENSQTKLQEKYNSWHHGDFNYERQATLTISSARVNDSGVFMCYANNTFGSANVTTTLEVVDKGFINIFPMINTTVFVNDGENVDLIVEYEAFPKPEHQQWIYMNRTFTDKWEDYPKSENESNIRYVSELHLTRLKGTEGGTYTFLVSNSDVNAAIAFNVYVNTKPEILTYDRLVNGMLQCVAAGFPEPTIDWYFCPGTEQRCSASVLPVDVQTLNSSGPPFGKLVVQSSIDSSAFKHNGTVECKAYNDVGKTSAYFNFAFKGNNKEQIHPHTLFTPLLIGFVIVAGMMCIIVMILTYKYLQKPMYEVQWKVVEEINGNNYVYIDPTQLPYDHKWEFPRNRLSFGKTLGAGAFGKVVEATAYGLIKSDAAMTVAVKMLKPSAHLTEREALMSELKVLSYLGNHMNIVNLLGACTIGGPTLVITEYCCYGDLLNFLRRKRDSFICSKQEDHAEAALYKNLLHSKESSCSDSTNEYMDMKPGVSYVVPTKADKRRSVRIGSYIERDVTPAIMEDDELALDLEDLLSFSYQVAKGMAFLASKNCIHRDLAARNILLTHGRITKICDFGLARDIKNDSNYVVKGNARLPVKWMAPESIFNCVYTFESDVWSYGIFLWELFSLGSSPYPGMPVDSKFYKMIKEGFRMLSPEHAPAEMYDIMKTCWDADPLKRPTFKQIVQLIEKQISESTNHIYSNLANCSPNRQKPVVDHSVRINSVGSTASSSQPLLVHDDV
# How it was run: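 MO7e human megakaryocytic leukemia cells, arrested 20 hr, treated with compound 1 hr, then stimulated with 50 ng/ml h-SCF for 5 min and lysed. Lysates captured on immobilized anti-phosphotyrosine antibody, detected with anti-c-kit primary and HRP secondary antibody; absorbance at 450 nm.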
# [1] = figure within parentheses in −( ) or >1000( )
SMILES,pIC50 (PDGF-Ra),pIC50 (PDGF-Ra; Pharmacological Test Example 1),pIC50 (c-kit; h-SCF 50 ng/ml),further results
"COc1cc2nccc(Oc3ccc(NC(=S)NC(=O)CCC4CCCC4)cc3)c2cc1OC [Example 1131, N-(3-Cyclopentylpropanoyl)-N′-{4-[(6,7-dimethoxy-4-quinolyl)oxy]phenyl}thiourea]",7.29,–,–,pIC50 (c-kit; h-SCF stimulation): 6.72
"COc1cc2nccc(Oc3cc(C)c(NCCOc4c(OC)cccc4OC)cc3C)c2cc1OC [Example 896, N-[2-(2,6-Dimethoxyphenoxy)ethyl]-N-{4-[(6,7-dimethoxy-4-quinolyl)oxy]-2,5-dimethylphenyl}amine]",7.02,–,–,inhibition at 1 µM (c-kit; figure in parentheses in −( )): 31%
"COc1ccc(COC(=O)Nc2ccc(Oc3ncnc4cc(OC)c(OC)cc34)cc2)cc1OC [Example 65, 3,4-Dimethoxybenzyl N-{4-[(6,7-dimethoxy-4-quinazolinyl)oxy]phenyl}carbamate]",–,> 8.00,6.99,–
"COc1cc2nccc(Oc3cc(C)c(NC(=O)NCCN(C(C)C)C(C)C)cc3C)c2cc1OC [Example 671, N-[2-(Diisopropylamino)ethyl]-N′-{4-[(6,7-dimethoxy-4-quinolyl)oxy]-2,5-dimethylphenyl}urea]",7.19,–,–,inhibition at 1 µM (c-kit; [1]): 22%
"COc1cc2nccc(Oc3cc(C)c(NC(=O)OC4CCc5ccccc5C4)cc3C)c2cc1OC (stereo not drawn) [Example 292, 1,2,3,4-Tetrahydro-2-naphthalenyl N-{4-[(6,7-dimethoxy-4-quinolyl)oxy]-2,5-dimethylphenyl}carbamate]",–,7.85,6.58,–
"COc1ccccc1CCC(=O)NC(=S)Nc1ccc(Oc2ncnc3cc(OC)c(OC)cc23)cc1 [Example 1141, N-{4-[(6,7-Dimethoxy-4-quinazolinyl)oxy]phenyl}-N′-[3-(2-methoxyphenyl)propanoyl]thiourea]",> 8.00,–,–,pIC50 (c-kit; h-SCF stimulation): 6.38
"CCCCc1ccc(OC(=O)Nc2ccc(Oc3ccnc4cc(OC)c(OC)cc34)c(C)c2C)cc1 [Example 273, 4-Butylphenyl N-{4-[(6,7-dimethoxy-4-quinolyl)oxy]-2,3-dimethylphenyl}carbamate]",–,7.64,6.97,–
"COc1cc2nccc(Oc3cc(C)c(NC(=O)NC4CCN(Cc5ccccc5)CC4)cc3C)c2cc1OC [Example 634, N-(1-Benzyl-4-piperidyl)-N′-{4-[(6,7-dimethoxy-4-quinolyl)oxy]-2,5-dimethylphenyl}urea]",< 7.00,–,–,inhibition at 0.1 µM (PDGF-Ra): 40%; inhibition at 1 µM (c-kit; [1]): 13%
"COc1cc2nccc(Oc3ccc(NC(=S)NC(=O)c4cc(C)oc4C)c(C)c3)c2cc1OC [Example 698, N-{4-[(6,7-Dimethoxy-4-quinolyl)oxy]-2-methylphenyl}-N′-[(2,5-dimethyl-3-furyl)carbonyl]thiourea]",< 7.00,–,–,inhibition at 0.1 µM (PDGF-Ra): 34%; inhibition at 1 µM (c-kit; [1]): 29%
"CCOc1ccccc1C(C)OC(=O)Nc1ccc(Oc2ncnc3cc(OC)c(OC)cc23)cc1 (stereo not drawn) [Example 130, 1-(2-Ethoxyphenyl)ethyl N-{4-[(6,7-dimethoxy-4-quinazolinyl)oxy]phenyl}carbamate]",–,> 8.00,6.15,–
"COc1cc2nccc(Oc3ccc(NC(=O)Oc4ccc(C(C)(C)C)cc4)c(C)c3C)c2cc1OC [Example 275, 4-(Tert-butyl)phenyl N-{4-[(6,7-dimethoxy-4-quinolyl)oxy]-2,3-dimethylphenyl}carbamate]",–,7.80,6.99,–
"COc1cc2nccc(Oc3ccc(NC(=O)OCc4ccc(C(C)(C)C)cc4)c(C)c3C)c2cc1OC [Example 58, 4-(Tert-butyl)benzyl N-{4-[(6,7-dimethoxy-4-quinolyl)oxy]-2,3-dimethylphenyl}carbamate]",–,7.92,6.30,–
"COc1cc2nccc(Oc3cc(C)c(NC(=O)OCCCc4ccccc4)cc3C)c2cc1OC [Example 377, 3-Phenylpropyl N-{4-[(6,7-dimethoxy-4-quinolyl)oxy]-2,5-dimethylphenyl}carbamate]",–,7.68,6.82,–
"COc1cc2ncnc(Oc3ccc(NC(=O)OC4CCCCCC4)cc3)c2cc1OC [Example 342, Cycloheptyl N-{4-[(6,7-dimethoxy-4-quinazolinyl)oxy]phenyl}carbamate]",–,> 8.00,> 7.52,–
